The source of these data is US11098059B2, “PRMT5 inhibitors” (Merck Sharp & Dohme Corp., priority 2017, dated 2021).

Experiment [1] deals with Full-length (FL)-PRMT5-MEP50 enzyme complex (Homo sapiens (Human), UniProt O14744). Nature of the experiment: PRMT5-MEP50 Enzyme Methylation Assay. On Enzyme Methylation Assay IC50 1: top concentration 100000 nM. It counts as biochemical. The protocol: PRMT5-MEP50 Enzyme Methylation Assay
PRMT5/MEP50 biochemical assay is a direct measurement of the methylation activity of the enzyme complex on a short peptide substrate derived from the N-terminus of H4 histone. The methylation experiment is performed with recombinant protein. The assessment of inhibitory effect (IC50) of small molecules is measured by the effectiveness of the compounds to inhibit this reaction.
To each well of a white ProxiPlus 384 well-plate, 100 nL of compound (1% DMSO in final assay volume of 10 μL) was dispensed, followed by the addition of 8 μL of 1× assay buffer (50 mM Bicine pH 8.0, 1 mM DTT, 0.004% Tween20, 0.01% BSA) containing 0.5 nM of Full-length (FL)-PRMT5-MEP50 enzyme complex (recombinant proteins from baculovirus-transfected Sf21 cells: FL-PRMT5; MW=[…] and FL-MEP50; MW=38614). Plates were sealed and placed in a 37° C. humidified chamber for 30 minutes pre-incubation with compounds. Subsequently, each reaction was initiated by the addition of 2 μL 1× assay buffer containing 75 nM biotinylated H4R3(Me1) peptide, and 15 μM S-(5′-Adenosyl)-L-Methionine Chloride (SAM). The final reaction in each well of 10 μL consists of 0.5 nM PRMT5-MEP50, 75 nM biotinylated-peptide, and 15 μM SAM. Methylation reactions were allowed to proceed for 150 minutes in a sealed plate at 37° C. Reactions were immediately quenched by the addition of 1 μL of 10% formic acid. Plates were then frozen and shipped to SAMDI™ Tech Inc. to determine the percent conversion from […]. IC50 values were determined by 7 parameters biphasic fit model plotting the percent product conversion vs. (Log10) compound concentrations.

In the next experiment the target is PRMT5 (Homo sapiens (Human), UniProt O14744). The experiment can be described thus: PRMT5 Cell Target Engagement (TE) Assay. It counts as cell-based. The note with it: treated 3 days, nuclear SDMA by high content imaging, top concentration 10000 nM. The text has this:
PRMT5 Cell Target Engagement (TE) Assay
The PRMT5 TE assay is a biomarker assay for identifying compounds that inhibit symmetric dimethylation of arginine (SDMA) of PRMT5 substrates. This assay detects symmetrically dimethylated nuclear proteins using high content imaging technology. Detection of the expression of symmetrically dimethylated nucleo proteins is through a mixture of primary rabbit monoclonal antibodies to SDMA (CST 13222), which in turn recognized by an Alexafluor 488 dye-conjugated anti-rabbit IgG secondary antibody. The IN Cell Analyzer 2200 measures nuclear Alexafluor 488 fluorescent dye intensity that is directly related to the level of expression of symmetrically dimethylated nuclear proteins at the single cell level. Nuclear AF488 dye intensities are compared to the mean value for DMSO treated cells […] to report percent of inhibition for each compound-treated well.
Each well of a BD falcon collagen coated black/clear bottom 384-well plate was seeded with 4000 MCF-7 cells and allowed to attach for 5 hours. Media from cell plate was removed at 0.5 mm above the bottom of the plate and replaced with 30 μL of fresh media containing 1.2× compounds in 0.1% DMSO. Cells were treated for 3 days in 37° C. CO2 incubator. On day 3, cells were fixed with Cytofix, permeablized with 0.4% Triton-X-100/Cytofix, and washed with D-PBS without Ca/Mg. Cells were blocked with Licor Odessey blocking reagent for one hour at room temperature, followed by incubation with anti-SDMA (1:1000) antibody at 4° C. overnight. 1 antibody was removed, followed by three washings with DPBS without Ca/Mg and 0.05% Tween20. Hoechst (5 μg/ml), Cell Mask deep stain (1:2000) and Alexa488-conjugated goat anti-rabbit IgG (2 μg/mL) was added for 1 hour at room temperature. A final washing step (three washes) was performed before sealing plate for imaging on In Cell Analyzer 2200. Images from analyzer were uploaded to Columbus (at WP) for image analysis. IC50 values were determined by 4 parameters robust fit of percent fluorescence units vs. (Log10) compound concentrations.

[2] abbreviates: read-out: Enzyme Methylation Assay IC50_1.
The mark [3] stands for this setting: read-out: Enzyme Methylation Assay IC50_2.
[4] abbreviates: MCF-7 cells, read-out: TE Assay EC50.

Where two headings read alike, the source gives them in different places.

PRMT5, sequence (O14744 whole entry): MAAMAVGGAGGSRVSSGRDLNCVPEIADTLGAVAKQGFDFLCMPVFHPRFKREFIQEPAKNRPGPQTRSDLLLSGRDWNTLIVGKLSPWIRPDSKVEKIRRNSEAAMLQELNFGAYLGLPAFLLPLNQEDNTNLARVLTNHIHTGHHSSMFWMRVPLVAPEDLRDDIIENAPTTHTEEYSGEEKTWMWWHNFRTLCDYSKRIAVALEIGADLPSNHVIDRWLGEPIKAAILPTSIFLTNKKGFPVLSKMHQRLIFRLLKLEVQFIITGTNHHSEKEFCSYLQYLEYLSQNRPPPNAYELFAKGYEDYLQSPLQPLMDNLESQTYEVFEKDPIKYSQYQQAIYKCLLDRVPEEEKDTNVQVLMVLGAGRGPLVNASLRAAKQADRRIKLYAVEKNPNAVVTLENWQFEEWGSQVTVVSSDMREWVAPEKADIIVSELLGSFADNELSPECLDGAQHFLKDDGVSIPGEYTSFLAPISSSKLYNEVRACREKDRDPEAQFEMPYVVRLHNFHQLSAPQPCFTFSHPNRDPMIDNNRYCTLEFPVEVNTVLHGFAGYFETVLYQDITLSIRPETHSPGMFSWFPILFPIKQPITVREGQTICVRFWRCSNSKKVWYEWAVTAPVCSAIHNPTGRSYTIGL
PRMT5, sequence (Q9BQA1 whole entry partner): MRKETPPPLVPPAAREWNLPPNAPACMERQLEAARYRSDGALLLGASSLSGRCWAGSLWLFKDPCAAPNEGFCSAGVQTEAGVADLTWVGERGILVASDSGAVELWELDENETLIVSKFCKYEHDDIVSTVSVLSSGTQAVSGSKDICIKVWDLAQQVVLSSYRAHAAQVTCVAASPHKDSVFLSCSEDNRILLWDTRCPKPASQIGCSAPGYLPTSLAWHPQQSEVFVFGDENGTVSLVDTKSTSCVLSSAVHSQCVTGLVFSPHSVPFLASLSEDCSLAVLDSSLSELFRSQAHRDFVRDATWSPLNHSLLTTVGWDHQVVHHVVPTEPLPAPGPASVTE
Full-length (FL)-PRMT5-MEP50 enzyme complex, sequence (O14744 whole entry): as the sequence (O14744 whole entry) above
Full-length (FL)-PRMT5-MEP50 enzyme complex, sequence (Q9BQA1 whole entry partner): as the sequence (Q9BQA1 whole entry partner) above

Consider `CC[C@H]1CN(C[C@@H](O)[C@@H]2Cc3ccccc3CN2)C(=O)c2ccc(Br)cc21` (single isomer, unassigned) [Example 1], for which the IC50 in experiment [1] (setting [2]) turned out to be 5.38 nM; in experiment [1] (setting [3]) it was 3740 nM. The EC50 on PRMT5 (setting [4]) is 2860 nM.
As to `CC[C@H]1CN(C[C@@H](O)[C@@H]2Cc3ccccc3CN2)C(=O)c2ccc(Br)cc21` (single isomer, unassigned) [Example 2], the values for the IC50 in experiment [1] (setting [2]) and in experiment [1] (setting [3]) were 0.21 nM and 172 nM, respectively. Besides, the EC50 on PRMT5 (setting [4]) worked out at 213 nM.
Take `CC[C@H]1CN(C[C@@H](O)[C@@H]2Cc3ccccc3CN2)C(=O)c2ccc(Br)cc21` (single isomer, unassigned) [Example 3]: the figures for the IC50 in experiment [1] (setting [2]) and in experiment [1] (setting [3]) were 411 nM and 21300 nM, respectively. Also, the EC50 at PRMT5 (setting [4]) is at least 10000 nM.
On the same counts, the results for `CC[C@H]1CN(C[C@@H](O)[C@@H]2Cc3ccccc3CN2)C(=O)c2ccc(Br)cc21` (single isomer, unassigned) [Example 4] are 45.8 nM, 25800 nM and at least 10000 nM.
Taken in the same sequence, the figures for `CC[C@H]1CN(C[C@@H](O)[C@@H]2Cc3ccccc3CN2)C(=O)c2ccc(-c3ncnn3C)cc21` (single isomer, unassigned) [Example 5] were 465 nM, at least 100000 nM and at least 10000 nM.
With `CC[C@H]1CN(C[C@@H](O)[C@@H]2Cc3ccccc3CN2)C(=O)c2ccc(-c3ncnn3C)cc21` (single isomer, unassigned) [Example 6], the IC50 in experiment [1] (setting [2]) was 3.82 nM; in experiment [1] (setting [3]), 5080 nM. The EC50 on PRMT5 (setting [4]) was 1440 nM.
On the same counts, the results for `CC[C@H]1CN(C[C@@H](O)[C@@H]2Cc3ccccc3CN2)C(=O)c2ccc(-c3ncnn3C)cc21` (single isomer, unassigned) [Example 7] are 0.31 nM, 313 nM and 143 nM.
On the same counts, the results for `CC[C@H]1CN(C[C@@H](O)[C@@H]2Cc3ccccc3CN2)C(=O)c2ccc(-c3ncnn3C)cc21` (single isomer, unassigned) [Example 8] are 49 nM, 28500 nM and 7680 nM.
Consider `CCC1CN(C[C@@H](O)[C@@H]2Cc3ccccc3CN2)C(=O)c2ccc(-c3ncnn3C3CC3)cc21` (single isomer, unassigned) [Example 10], for which the results for the IC50 in experiment [1] (setting [2]) and in experiment [1] (setting [3]) were 0.4 nM and 374 nM, respectively. Further, at PRMT5 (setting [4]), the EC50 came out at 22.6 nM.
Take `CC[C@H]1CN(C[C@@H](O)[C@@H]2Cc3ccccc3CN2)C(=O)c2ccc(C(=O)N3C4CCC3COC4)cc21` (single isomer, unassigned) [Example 13]: the IC50 in experiment [1] (setting [2]) amounted to 0.36 nM; in experiment [1] (setting [3]), 270 nM. This compound also displayed an EC50 on PRMT5 (TE Assay EC50, MCF-7 cells) of 30 nM.
On the same counts, the results for `CC[C@H]1CN(C[C@@H](O)[C@@H]2Cc3ccccc3CN2)C(=O)c2ccc(C(=O)N3C4CCC3COC4)cc21` (single isomer, unassigned) [Example 14] are 0.24 nM, 31.7 nM and 2.52 nM.
With `CC[C@H]1CN(C[C@@H](O)[C@@H]2Cc3ccccc3CN2)C(=O)c2ccc(C(=O)N3C4CCC3COC4)cc21` (single isomer, unassigned) [Example 15], the IC50 came to 9.54 nM in experiment [1] (setting [2]) and 3210 nM in experiment [1] (setting [3]). In addition, the EC50 at PRMT5 (setting [4]) came out at 120 nM.
On the same counts, the results for `CC[C@H]1CN(C[C@@H](O)[C@@H]2Cc3ccccc3CN2)C(=O)c2ccc(C(=O)N3C4CCC3COC4)cc21` (single isomer, unassigned) [Example 16] are 17.6 nM, 8840 nM and 829 nM.
On the same counts, the results for `CC1(C)CN(C[C@@H](O)[C@@H]2Cc3ccccc3CN2)C(=O)c2ccc(-c3ncnn3C3CC3)cc21` [Example 9, 6-(1-cyclopropyl-1H-1,2,4-triazol-5-yl)-2-{(2R)-2-hydroxy-2-[(3S)-1,2,3,4-tetrahydroisoquinolin-3-yl]ethyl}-4,4-dimethyl-3,4-dihydroisoquinolin-1(2H)-one] are 0.47 nM, 422 nM and 29.5 nM.
On the same counts, the results for `O=C1c2ccc(-c3ncnn3C3CC3)cc2C2(CCC2)CN1C[C@@H](O)[C@@H]1Cc2ccccc2CN1` [Example 11, 6′-(1-cyclopropyl-1H-1,2,4-triazol-5-yl)-2′-{(2R)-2-hydroxy-2-[(3S)-1,2,3,4-tetrahydroisoquinolin-3-yl]ethyl}-2′,3′-dihydro-1′H-spiro[cyclobutane-1,4′-isoquinolin]-1′-one] are 0.29 nM, 127 nM and 17 nM.
Turning to `CCC1CN(CC(O)[C@@H]2Cc3ccccc3CN2)C(=O)c2ccc(C(=O)N3C4CCC3COC4)cc21` (stereo partly drawn) [Example 12, 4-ethyl-2-{2-hydroxy-2-[(3S)-1,2,3,4-tetrahydroisoquinolin-3-yl]ethyl}-6-(3-oxa-8-azabicyclo[3.2.1]oct-8-ylcarbonyl)-3,4-dihydroisoquinolin-1(2H)-one], the IC50 in experiment [1] (setting [2]) was determined as 0.63 nM; in experiment [1] (setting [3]), 253 nM. At PRMT5 (TE Assay EC50, MCF-7 cells), this compound had an EC50 of 29.8 nM.
Regarding `CC1(C)CN(C[C@@H](O)[C@@H]2Cc3ccccc3CN2)C(=O)c2ccc(Br)cc21` [Example 17, 6-bromo-2-((R)-2-hydroxy-2-((S)-1,2,3,4-tetrahydroisoquinolin-3-yl)ethyl)-4,4-dimethyl-3,4-dihydroisoquinolin-1(2H)-one], the IC50 in experiment [1] (setting [2]) amounted to 0.61 nM; in experiment [1] (setting [3]), 368 nM. Besides, the EC50 at PRMT5 (setting [4]) is 200 nM.
In the case of `CC1(C)CN(C[C@H](O)[C@@H]2Cc3ccccc3CN2)C(=O)c2ccc(Br)cc21` [Example 18, 6-bromo-2-((S)-2-hydroxy-2-((S)-1,2,3,4-tetrahydroisoquinolin-3-yl)ethyl)-4,4-dimethyl-3,4-dihydroisoquinolin-1(2H)-one], the IC50 is 225 nM in experiment [1] (setting [2]) and at least 100000 nM in experiment [1] (setting [3]). Further, the EC50 at PRMT5 (setting [4]) was at least 10000 nM.
As to `CC1(C)CN(C[C@@H](O)[C@@H]2Cc3ccccc3CN2)C(=O)c2ccc(C(=O)N3C4CCC3COC4)cc21` [Example 19, 6-(3-oxa-8-azabicyclo[3.2.1]octane-8-carbonyl)-2-((R)-2-hydroxy-2-((S)-1,2,3,4-tetrahydroisoquinolin-3-yl)ethyl)-4,4-dimethyl-3,4-dihydroisoquinolin-1(2H)-one], the IC50 in experiment [1] (setting [2]) turned out to be 0.53 nM; in experiment [1] (setting [3]), 138 nM. On PRMT5 (TE Assay EC50, MCF-7 cells), this compound registered an EC50 of 9.5 nM.
In the case of `CC1(C)CN(C[C@H](O)[C@@H]2Cc3ccccc3CN2)C(=O)c2ccc(C(=O)N3C4CCC3COC4)cc21` [Example 20, 6-(3-oxa-8-azabicyclo[3.2.1]octane-8-carbonyl)-2-((S)-2-hydroxy-2-((S)-1,2,3,4-tetrahydroisoquinolin-3-yl)ethyl)-4,4-dimethyl-3,4-dihydroisoquinolin-1(2H)-one], the IC50 in experiment [1] (setting [2]) was 12.9 nM; in experiment [1] (setting [3]), 4070 nM. For the same compound, on PRMT5 (setting [4]), the EC50 came out at 153 nM.
`CC1(C)CN(C[C@@H](O)[C@@H]2Cc3ccccc3CN2)C(=O)c2ccc(C(=O)N3[C@@H]4CC[C@H]3C[C@@H](O)C4)cc21` [Example 21, 2-((R)-2-hydroxy-2-((S)-1,2,3,4-tetrahydroisoquinolin-3-yl)ethyl)-6-((1R,3R,5S)-3-hydroxy-8-azabicyclo[3.2.1]octane-8-carbonyl)-4,4-dimethyl-3,4-dihydroisoquinolin-1(2H)-one]: the IC50 in experiment [1] (setting [2]) came to 0.52 nM; in experiment [1] (setting [3]), 88.1 nM. The compound also yielded an EC50 on PRMT5 (TE Assay EC50, MCF-7 cells) of 5.52 nM.

Broadly, the EC50 is the concentration at which the effect is half-maximal.
